Experimental findings from US11553718B2, “Mic reduction with lithium ions” (priority 2014, dated 2023) are described below.

Several values for one entry are separate records, joined by “and”; a condition that tells them apart may be missing. Equal values may be shown once. Read-outs that look alike come from different tables or passages of the source.

In test [1] the test system is E. coli strain ATCC11229. The test is described as follows: MIC determination / bacterial count in CaCO3 slurry with or without lithium ions. It counts as cell-based. To be noted: for MIC ratio (MICwithout Li/MICLi): E. coli; for MIC: Escherichia coli, ATCC11229, read-out: MIC active/aequeous, E. coli. The protocol:
(§1) When not otherwise indicated, the quoted bacterial counts (values are in cfu/plate) in the Tables here below are determined after 2 days following plate-out and incubation at 30° C. The counting method was as follows. The aqueous preparations were stirred well with a cotton swap (e.g. Applimed SA, No. 1102245); the excess aqueous preparation was removed by dipping it gently to the side of the aqueous preparation container, leaving approximately 200 mg of aqueous preparation on the swap. […] TSA plates were then incubated for 48 h at 30° C. Colony forming units (cfu) were then counted and reported as cfu/plate. Counts from 100 to 999 cfu per plate are reported as ≥100 cfu/plate. Counts of 1000 cfu and above per plate are reported as ≥1000 cfu/plate. Yeast and moulds were counted as described for bacteria with the following exceptions, a) Sabouraud Dextrose Agar (SDA) containing Chloramphenicol (e.g. heipha Dr. Miller GmbH, No. 1460030020) were used instead of TSA, b) SDA plates were incubated at 25° for 5 days and c) cfu were counted and reported after 48 h and 5 days of incubation. Yeast and moulds counts from 20 to 99 cfu per plate are reported as […]. Yeast and moulds counts of 100 cfu and above per plate are reported as >100 cfu/plate.
(§2) For determining the MIC, the tested microorganism, i.e. the strain of bacteria and/or strain of yeast and/or strain of mould, were freshly grown until the end of the logarithmic growth phase according to the requirements of the individual species to a density of approximately 10^7-10^9 cells/ml.
(§3) For example, fresh bacteria cultures of the bacteria E. coli, e.g. E. coli ATCC 11229, and S. aureus, e.g. S. aureus strains DSMZ 346, were prepared by inoculation of 3 ml liquid growth media (tryptic soy broth, e.g. Fluka Cat. No. 22092) from a stock culture and incubation for 16 to 20 h at 30° C. with agitation at 150 rotations per minutes (rpm) leading to a cell density of approximately 2×10^8 cells/ml. Fresh cultures of resistant bacteria, adapted to the conditions in biocide containing CaCO3 slurries, were prepared by inoculation of 50 g 75 wt.-% solid content CaCO3 slurry from a stock culture and incubated for 14 to 28 days at 30° C. without agitation.
(§4) Lithium ions were added to the aqueous preparation (e.g. CaCO3 slurry) by the addition of a water soluble lithium salt. For example to 50 g CaCO3 slurry with a solid content of 75% (w/w) 1.177 ml of a 74 g/Li2CO3 suspension was added and mixed well leading to a lithium ion concentration of 172 mM or 1205 ppm in the water phase. As another example to 50 g CaCO3 slurry with a solid content of 75 wt.-% (w/w) 0.04 ml of a 292 g/L Li3Citrate (2M) solution was added and mixed well leading to a lithium ion concentration of 19 mM or 135 ppm in the water phase.
(§5) The biocide to be tested was added to the aqueous preparation (e.g. CaCO3 slurry with or without lithium ions) in increasing concentrations starting from 0 ppm (without biocide). The concentrations ranged from concentrations higher than recommended by the supplier, to very low amounts (as low as 1 ppm or lower). Of each biocide concentration a 3 ml sample of aqueous preparation was combined with 20 μl fresh bacterial culture.
(§6) All samples were incubated at 30° C. for 24 h. After incubation colony forming units (cfu) per plate (cfu/plate) were determined as described above under bacterial count.
(§7) The MIC for bacteria is defined as the lowest concentration of biocide in the presence or absence of lithium ion amongst all samples tested, where the bacterial concentration dropped below 100 cfu/plate. The MIC for yeast and mould is defined as the lowest concentration of biocide in the presence or absence of lithium ion amongst all samples tested, where the microbial concentration dropped below 20 cfu/plate.

The subject of test [2] is S. aureus strain DSMZ 346. The test is described as above. In kind it is cell-based. The following applies: for MIC ratio (MICwithout Li/MICLi): S. aureus; for MIC: Staphylococcus aureus, DSMZ346, S. aureus, read-out: MIC active/aequeous. On the procedure: as §1, §2, §3, §4, §5, §6, §7
In test [3] the test system is rOPP strain. Put plainly: MIC determination in CaCO3 slurry with or without lithium ions. It counts as cell-based, Pseudomonas mendocina. To be noted: Li2CO3; for MIC: Ectopseudomonas mendocina, read-out: MIC active/aequeous, rOPP; for MIC ratio (MICwithout Li/MICLi): rOPP. The protocol: as §1, §2, §3, §4, §5, §6, §7
For test [4], the system named is S. aureus. The test is described as follows: Curative MIC (bacteria added before biocide and lithium). The following applies: Curative treatment, Li^+ 329 mM (2305 ppm), Li2CO3. In kind it is cell-based.
In test [5] the test system is rGDA/IT (rGDA-IT) strain. The test is described as follows: MIC determination in CaCO3 slurry with or without lithium ions. In kind it is cell-based, Pseudomonas mendocina. To be noted: Li^+ 197 mM (1380 ppm), Li2CO3. The protocol:
as §1, §2, §3, §4, §5, §6, §7

The test system of test [6] is bacterial strain rOmyAK. Put plainly: microbe, parasite or virus in culture. It counts as cell-based, Pseudomonas mendocina. To be noted: for bacterial count: rOmy AK; for MIC ratio (MICwithout Li/MICLi) / MIC active/aequeous: rOmyAK. On the procedure: as §1, §2, §3, §4, §5, §6, §7

On to `Oc1ccccc1-c1ccccc1` [2-Phenylphenol (OPP), 2-Phenylphenol], for which the “MIC ratio (MICwithout Li/MICLi)” value was 1.5 in test [1] (Li^+ 197 mM (1380 ppm), Li2CO3); 2 in test [2] (Li^+ 53 mM (370 ppm), Li2CO3); 10 in test [2] (Li^+ 67 mM (470 ppm), LiOH); 2 in test [3] (Li^+ 172 mM (1205 ppm)); more than 4.5 in test [3] (Li^+ 197 mM (1380 ppm)); more than 9 in test [3] (Li^+ 329 mM (2305 ppm)). For the same compound, the MIC in test [1] (Li^+ 197 mM (1380 ppm), Li2CO3) was 2080 µM and 354 µg/mL; in test [1] (no Li^+), 3120 µM and 531 µg/mL; in test [2] (Li^+ 53 mM (370 ppm), Li2CO3), 880 µM and 150 µg/mL; in test [2] (Li^+ 67 mM (470 ppm), LiOH), 180 µM and 30 µg/mL; in test [2] (no Li^+), 1760 µM and 300 µg/mL; in test [3] (Li^+ 172 mM (1205 ppm)), 260 µM and 45 µg/mL. The MIC in test [3] (Li^+ 197 mM (1380 ppm)) is 2080 µM and 354 µg/mL; in test [3] (Li^+ 329 mM (2305 ppm)), 1040 µM and 177 µg/mL.

`O=c1[nH]sc2ccccc12` [Benzisothiazolinone (BIT), Benzisothiazolinone]: the “MIC ratio (MICwithout Li/MICLi)” value in test [2] (Li^+ 423 mM (2964 ppm), Li2CO3) was more than 2; in test [4] it was 2.

Take `Cn1sccc1=O` [MIT, 2-Methyl-2H-isothiazolin-3-one]: the “MIC ratio (MICwithout Li/MICLi)” value in test [1] (Li^+ 197 mM (1380 ppm), Li2CO3) is reported as more than 2.5; in test [2] (Li^+ 329 mM (2305 ppm), Li2CO3) it was more than 5; in test [5] it was 1.67; in test [6] (Li^+ 197 mM (1380 ppm), Li2CO3), 1; in test [6] (Li^+ 329 mM (2305 ppm), Li2CO3) it was 3; in test [6] (Li^+ 423 mM (2964 ppm), Li2CO3) it was 6. Further, the bacterial count is given as not below 100 cfu/plate in test [6] (18 ppm MIT, 329 mM Li^+); not below 1000 cfu/plate in test [6] (18 ppm MIT, no Li^+); 68 cfu/plate in test [6] (35 ppm MIT, 329 mM Li^+); not below 100 cfu/plate in test [6] (35 ppm MIT, no Li^+); 0 cfu/plate in test [6] (106 ppm MIT, 329 mM Li^+); 0 cfu/plate in test [6] (106 ppm MIT, no Li^+). For the same compound, the MIC active/aequeous in test [6] (Li^+ 329 mM (2305 ppm), Li2CO3) came out at 35 ppm; in test [6] (no Li^+) it was 106 ppm.
